Read-outs that look alike come from different tables or passages of the source.
Experiments:
ATXN3 protein = assay: In vitro cell test: GFP-ATXN3 protein aggregation/expression in transfected cells by fluorescence microscopy; assay type: cell-based, human; settings: pEGFP-C1-Ataxin3Q84 transfected HEK 293T or neural stem cells; 5 µg/ml for 24 hours; versus untreated groups; Figure 1
Protocol: In this experiment, the effects of BP and ligustilide on the protein expression level of SCA3 protein were analyzed. Frist, pEGFP-C1-Ataxin3Q84 plasmid (i.e., a plasmid comprising Ataxin gene with abnormal CAG repeat number (84Q)) containing green fluorescent protein or pEGFP-C1-Ataxin3Q28 plasmid (i.e., a plasmid comprising Ataxin gene with normal CAG repeat number (28Q)) (Addgene company, U.S.) was transfected into human embryonic kidney (HEK) cells 293T (Bioresource Collection and Research Center, Taiwan) or neural stem cells (NSC). The cells were then cultured in a DMEM medium (Dulbecco's modified Eagle's medium, Thermo) containing 10% fetal bovine serum (Gibco), and incubated in an incubator with 5% CO2 at 37°C. Then, the cells were treated with 5 µg/ml BP (A10353, purchased from Alfa Aesar, U.S.; with a purity of 95%) or ligustilide (5393-015M1, purchased from Pharmaron, China) for 24 hours. The protein aggregation of GFP-ATXN3 protein in the cells of each group was observed by a fluorescence microscopy. Wild type cells and cells transfected with green fluorescent protein (GFP) were used as the control group.

Purkinje cells = assay: Immunohistochemistry staining of cerebellar slices of SCA3 mice; assay type: in vivo; settings: cerebellum slices; BP 100 or 500 mg/kg/bid, ligustilide 100 mg/kg/bid; sacrificed at 20 and 24 weeks; versus untreated and olive oil groups; Figure 7
Protocol: (§1) The MJD84.2 transgenic mice (i.e., the mice with modified ATXN3 gene) of eight weeks of age were randomly divided into five groups, with six mice in each group. The mice were treated with the following conditions: (1) untreated group; (2) treated with olive oil; (3) treated with 100 mg/kg/bid of BP; (4) treated with 500 mg/kg/bid of BP; (5) treated with 100 mg/kg/bid of ligustilide. Then, the mice were sacrificed at the age of 20 weeks and 24 weeks. Cerebellar slices staining and tissue protein extraction were performed (see Example 5). Whole brain tissue of the mice was fixed overnight with 3.7% formalin and embedded in paraffin. The samples were sectioned (4 µm) by using a Quanto kit (Thermo, USA) and mounted on a microscope slide.

calbindin = assay: Western blotting of cerebellum tissue of SCA3 mice, anti-calbindin antibody; assay type: in vivo; settings: BP 100 or 500 mg/kg/bid, ligustilide 100 mg/kg/bid, versus untreated and olive oil groups, Figure 8
Protocol: as §1
(§2) The cerebellums of the mice sacrificed in example 4 were separated from the whole brain, and the proteins in the cerebellums were extracted. The purified proteins were analyzed by Western blotting assay using an anti-ubiquitin antibody and an anti-calbindin antibody, respectively, to determine the changes in the protein expression level of ubiquitin and calbindin in the cerebellum tissue of SCA3 mice in each group. β-actin was used as an internal control group.

MJD84.2 transgenic mice [1] = assay: Local motor test in MJD84.2 transgenic mice (SCA3 mice); assay type: in vivo; settings: BP 100 or 500 mg/kg/bid, ligustilide 100 mg/kg/bid, versus untreated group and olive oil group; for total moving distance: Figure 5A; for moving times: Figure 5B; for moving time: Figure 5C
Protocol: (§3) MJD84.2 transgenic mice (i.e., the mice being transfected with ATXN3 gene with human 84 CAG repeat sequence, hereinafter referred to as "SCA3 mice") were used in this experiment. MJD84.2 transgenic mice were an animal model used for studying spinal cerebellar atrophy.
(§4) The MJD84.2 transgenic mice of […] were randomly divided into five groups, each group had six mice. The mice were treated with the following conditions for two weeks: (1) untreated group; (2) treated with olive oil (i.e., only treated with the adjuvant); (3) treated with 100 mg/kg/bid (bis in die) of BP; (4) treated with 500 mg/kg/bid of BP; (5) treated with 100 mg/kg/bid of ligustilide. The wild type mice (WT) was used as a control group. After 2 weeks, local motor and rotarod test were conducted.
Local motor test was performed to test the exercise ability of mice. 10-week-old mice were tested on rotarod once every three weeks. Then, the mice were placed in a transparent acrylic box 2 hours and were free to move. A behavioral test was conducted for 1 hour by using VersaMax 420 (AccuscanInstrumentsInc, USA), and the data was analyzed by statistical methods.

MJD84.2 transgenic mice [2] = assay: Rotarod test in MJD84.2 transgenic mice (SCA3 mice); assay type: in vivo; settings: BP 100 or 500 mg/kg/bid, ligustilide 100 mg/kg/bid; versus untreated group and olive oil group; Figure 6
Protocol: as §3, §4
Rotarod test was performed to test the balance and grip ability of mice. The mice were given practice two weeks before the first behavioral test. The experiment was conducted using an IITC rotarod (IITC Life Science Inc, USA). 10-week-old mice were tested on a rotarod once every three weeks. The test condition was set as a linear acceleration from 4 to 40 rpm within 300 seconds. The time (sec) that the mice fell from the rotarod (i.e., latency to fall) was recorded. […] After the rotarod test, the body weight of the mice were recorded. […]

ubiquitin = assay: Western blotting of cerebellum tissue of SCA3 mice, anti-ubiquitin antibody; assay type: in vivo; settings: mice treated with BP, versus untreated and olive oil groups, Figure 9
Protocol: as §1, §2

zebrafish = assay: Behavioral test in zebrafish injected with ATXN3 MO (tail stimulation); assay type: in vivo; settings: Figure 3
Protocol: Morpholinos (MO) was produced by modifying the structure of a fragment of DNA, which can block protein translation process of mRNA to inhibit the expression of a target protein. The ATXN3 MO used in this experiment has a sequence of 5'-[…]-3' (SEQ ID NO. : 1), and the standard used in the control group is 5'-[…]-3' (SEQ ID NO. : 2) (hereinafter referred to as "Ct MO"). Before injection, the MO was dissolved in ddH2O, stored at -20°C for used. Zebrafish eggs were micro-injected within about one hour after birth. After 21 to 48 hours post fertilization (hpf), the zebrafish eggs were micro-injected with ATXN3 MO or ATXN3 MO in combination with 250 mg/kg BP, 125 mg/kg BP or 62.5 mg/kg BP. After 48 hours, the fish tails were stimulated by tips, and the number of stimulation causing movement of the fish tails was measured.

motor neurons = assay: Confocal microscopy test of motor neurons in zebrafish injected with ATXN3 MO; assay type: in vivo; settings: ATXN3 MO in combination with 250 mg/kg BP; after 48 hours; Figure 4
Protocol: Zebrafish eggs were micro-injected with 300 nM/µl ATXN3 MO, 250 mg/kgBP, or ATXN3 MO in combination with 250 mg/kgBP, 125 mg/kg BP or 62.5 mg/kgBP. After 48 hours, the zebrafishes were enclosed in glass slides. The motor neurons in the living body were recorded by a confocal fluorescence microscopy.

[3] = Safe dose test (toxicity of BP to zebrafish, survival rate); settings: in vivo, after 48 hours, 28.5°C, Figure 2, read-out: survival rate of the zebrafishes
Protocol: In this experiment, the zebrafishes that were used as the animal models in the experimental group were Tg (HuC:GFP), which is characterized by its primary sensory neurons (Rohon-Beard cells) that can produce fluorescence. The zebrafishes used in the control group were wild type zebrafishes. All of the zebrafishes were provided by TZCAS (Taiwan Zebrafish Core Facility at Academia Sinica, Taiwan) and TZCF (Taiwan Zebrafish Core Facility, Taiwan). First, the toxicity of BP to zebrafish was tested by injecting different dose of BP to zebrafishes. The zebrafishes were then kept at 28.5°C. After 48 hours, the survival rate of the zebrafishes was observed.

Row | Compound | fluorescent signal of Ataxin3Q84 (ATXN3 protein) | number of Purkinje cells (Purkinje cells) | protein expression level of calbindin (calbindin) | total moving distance (MJD84.2 transgenic mice [1]) | moving times (MJD84.2 transgenic mice [1]) | moving time (MJD84.2 transgenic mice [1]) | balance and grip ability (latency to fall) (MJD84.2 transgenic mice [2]) | content of the ubiquitin ubiquitination proteins (ubiquitin) | restoring the behavioral ability of the diseased zebrafishes (zebrafish; 250 mg/kg BP compared with the other BP doses) | amount of stimulation-caused movement of fish tails (zebrafish; ATXN3 MO in combination with 250, 125 or 62.5 mg/kg BP, after 48 hours, versus ATXN3 MO alone) | number of motor neurons (motor neurons) | survival at 48 h ([3]; 50 mg/kg BP injected) | survival at 48 h ([3]; 250 mg/kg BP injected) | survival at 48 h ([3]; 500 mg/kg BP injected)
1 | CCCC=C1OC(=O)C2=C1CCC=C2 [ligustilide, 3-butylidene-4,5-dihydrophthalide] | significantly lower | significantly higher | significantly higher | higher | higher | higher | better |  |  |  |  |  |  | 
2 | CCCC=C1OC(=O)c2ccccc21 [BP, n-butylidenephthalide] | significantly lower | significantly higher | significantly higher | higher | higher | higher | better | significantly higher | the most obvious effect | restored (i.e., decreased) | can maintain the number of motor neurons | > 75% | > 75% | 50%
